Reference: the SangsterLogP compilation

Assay: not given

Row | SMILES | logP
1 | Cc1ccc(OC(=O)N(C)C)cc1 | 2.1
2 | CCc1cccc(OC(=O)NC)c1 | 2.23
3 | CNC(=O)Oc1cccc(I)c1 | 2.33
4 | CNC(=O)Oc1ccc(F)cc1 | 1.35
5 | CN(C)C(=O)Oc1ccc(Cl)cc1 | 2.23
6 | CNC(=O)Oc1cccc([N+](=O)[O-])c1 | 1.37
7 | CCOc1cccc(OC(=O)NC)c1 | 1.82
8 | CCC(C)c1ccc(OC(=O)N(C)C)cc1 (stereo not drawn) | 3.6
9 | CCc1ccc(OC(=O)N(C)C)cc1 | 2.58
10 | CN(C)C(=O)Oc1cccc(Cl)c1 | 2.26
11 | CN(C)C(=O)Oc1ccc(F)cc1 | 1.65
12 | CC(C)c1ccc(OC(=O)N(C)C)cc1 | 3.07
13 | CCOc1ccc(OC(=O)NC)cc1 | 1.75
14 | CNC(=O)Oc1ccc(OC)cc1 | 1.23
15 | CN(C)C(=O)Oc1ccc([N+](=O)[O-])cc1 | 1.54
16 | CC(=O)c1ccc(OC(=O)N(C)C)cc1 | 1.23
17 | CNC(=O)Oc1cccc(C#N)c1 | 1.01
18 | CNC(=O)Oc1cccc(C)c1 | 1.73
19 | CNC(=O)Oc1cccc(OC)c1 | 1.34
20 | CNC(=O)Oc1ccc(C)cc1 | 1.73
21 | CNC(=O)Oc1ccc(I)cc1 | 2.34
22 | CNC(=O)Oc1cccc(N(C)C)c1 | 1.64
23 | CCc1ccc(OC(=O)NC)cc1 | 2.27
24 | CNC(=O)Oc1cccc(C(C)=O)c1 | 0.97
25 | CCC(=O)c1cccc(OC(=O)NC)c1 | 1.51

Assay: method code SF-HPLC, from DOI: 10.1248/cpb.44.1338

Row | SMILES | logP
26 | CN(C)C(=O)Oc1ccc(C#N)cc1 | 1.21
27 | CN(C)C(=O)Oc1cccc([N+](=O)[O-])c1 | 1.56
28 | CCCc1ccc(OC(=O)N(C)C)cc1 | 3.15
29 | CCc1cccc(OC(=O)N(C)C)c1 | 2.47
30 | CN(C)C(=O)Oc1cccc(F)c1 | 1.75
31 | CN(C)C(=O)Oc1cccc(C#N)c1 | 1.23
32 | CN(C)C(=O)Oc1ccc(Br)cc1 | 2.46
33 | CN(C)C(=O)Oc1cccc(N(C)C)c1 | 1.93
